Values of other authors, collected in patent publication US5858398A, “Microparticular pharmaceutical compositions” (Isomed Inc., priority 1996, dated 1999).

Tested on: intestinal membranes

sn-1-acyl-3-glycerophosphorylcholine [lyso-PC]
concentrations inducing histopathological damage to intestinal membranes: 0.01-1 mM
